Holding throughout (type): in vivo
Series [1] has as its system Echinochloa oryzacola Vasing. The experiment in a line: Test Example 1: herbicidal activity, application before weed generation in submerged conditions (symbol A). The note with it: application herbicide amount 320 g/ha. The procedure, abridged:
(§1)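 Steps: alluvial soil flooded to 4 cm; weed seeds sown together; rice seedlings (2.5 leaf) transplanted; diluted emulsion applied to water surface the same day as sowing; plants grown at 25–30 °C in greenhouse; herbicidal effect rated on a 0–5 scale at 3 weeks.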

The test system of series [2] is Scirpus juncoides. The experiment in a line: Test Example 1: herbicidal activity, application before weed generation in submerged conditions (symbol B). The note with it: application herbicide amount 320 g/ha. The procedure, abridged: as §1
The subject of series [3] is Scirpus juncoides. The experiment in a line: Test Example 2: herbicidal activity, application during weed generation in submerged conditions (symbol B). The note with it: Table 23; application herbicide amount 320 g/ha; grade 0-5 by criteria of Test Example 1. A digest of the protocol:
(§2)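 Seeds sown in flooded alluvial soil (4 cm water) were grown in a 25-30° C greenhouse. At the one- to two-leaf stage, diluted emulsion of compound was applied to the water surface at a predetermined rate. Effect was scored 3 weeks later.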

Another series has as its system Monochoria vaginalis. The experiment in a line: Test Example 2: herbicidal activity, application during weed generation in submerged conditions (symbol C). The note with it: Table 23; application herbicide amount 320 g/ha; grade 0-5 by criteria of Test Example 1. The procedure, abridged:
as §2

The test system of series [4] is Echinochloa crus-galli var. crus-galli. The experiment in a line: Test Example 3: herbicidal effect by foliage application, Wagner pot (symbol H). To be noted: application herbicide amount 320 g/ha. A digest of the protocol: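 Plants sown in submerged alluvial soil (water depth 0.1–0.5 cm) in a 25–30 °C greenhouse and grown 14 days. An emulsion of the compound diluted in water to a set herbicide amount was sprayed uniformly on foliage. Effect on each plant scored 3 weeks after application.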

In a further series the test system is Amaranthus retroflexus. The experiment in a line: Test Example 4: herbicidal effect by soil treatment (symbol N). To be noted: application herbicide amount 320 g/ha. The procedure, abridged: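 Seeds were sown in sterilized diluvial soil, covered with about 1.5 cm of soil, and the soil surface was sprayed with a water-diluted emulsion of the compound at a predetermined rate. Plants grew in a greenhouse at 25° C. to 30° C.; effects were scored visually 3 weeks after application.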

Series [5] has as its system soybean. The experiment in a line: Test Example 4: effect on crop by soil treatment (symbol d). The note with it: application herbicide amount 320 g/ha. The procedure, abridged:
(§3)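 Crop seed is sown in spots together with several weed species in a box of sterilized diluvial soil. It is covered by about 1.5 cm of soil and kept in a greenhouse held between 25° C. and 30° C.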

A further series relates to rapeseed. The experiment in a line: Test Example 4: effect on crop by soil treatment (symbol g). The note with it: application herbicide amount 320 g/ha. The procedure, abridged:
as §3

The subject of a further series is Avena fatua. The experiment in a line: Test Example 5: herbicidal effect by foliage application, plastic box (symbol I). The note with it: 320 g/ha, 3 weeks after application. A digest of the protocol:
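Herbicide, formulated as an emulsion and diluted in water, is sprayed onto the aerial parts of 14-day seedlings. These were grown at 25° C. to 30° C. in sterilized diluvial soil; effects are graded after 3 weeks.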

Series [6] has as its system soybean. The experiment in a line: Test Example 5: effect on crop by foliage application, plastic box (symbol d). To be noted: 320 g/ha, 3 weeks after application. A digest of the protocol:
(§4)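 Crop and weed seeds sown in spots in sterilized diluvial soil in plastic boxes and covered with about 1.5 cm soil. Plants raised in a greenhouse at 25° C. to 30° C. for foliar application.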

The subject of a further series is rice plant. The experiment in a line: Test Example 5: effect on crop by foliage application, plastic box (symbol b). To be noted: 320 g/ha, 3 weeks after application. A digest of the protocol: as §4
Another series deals with wheat. The experiment in a line: Test Example 5: effect on crop by foliage application, plastic box (symbol e). To be noted: 320 g/ha, 3 weeks after application. The procedure, abridged:
as §4

Regarding `CON=C(C)C(C)C1CC(O)=C(c2c(C)cc(C)cc2C)C1=O` (stereo not drawn) [1-032], in series [1], the “Herbicidal effect grade, A: Echinochloa oryzacola Vasing.” value was 5 (Herbicidal ratio of 90% or more (almost completely withered)). In addition, the “Herbicidal effect grade, B: Scirpus juncoides” value (from here on “Herbicidal effect grade, B”) in the series on Scirpus juncoides [2] is 5 (Herbicidal ratio of 90% or more (almost completely withered)); in the series with Scirpus juncoides [3], 4 (Herbicidal ratio of 70% or higher and lower than 90%). In the series with Monochoria vaginalis, the “Herbicidal effect grade, C: Monochoria vaginalis” value (“Herbicidal effect grade, C” for short) was 3 (Herbicidal ratio of 40% or higher and lower than 70%). In addition, in series [4], the “herbicidal effect on H (Echinochloa crus-galli var. crus-galli), grade 0-5” value (from here on “herbicidal effect on H”) was 5 (Herbicidal ratio of 90% or more (almost completely withered)). Also, in the series on Amaranthus retroflexus, the “N (Amaranthus retroflexus) herbicidal effect grade” value was 4 (Herbicidal ratio of 70% or higher and lower than 90%). Further, the “d (soybean) effect on crop grade” value in the series on soybean [5] is given as 0 (Herbicidal ratio of 5% or lower (almost no effect)). Also, the “g (rapeseed) effect on crop grade” value in the series on rapeseed is listed as 5 (Herbicidal ratio of 90% or more (almost completely withered)). Besides, the “I: Avena fatua, herbicidal effect grade” value in the series on Avena fatua was 5 (Herbicidal ratio of 90% or more (almost completely withered)). Also, the “d: soybean, effect on crop grade” value in the series on soybean [6] was 4 (Herbicidal ratio of 70% or higher and lower than 90%). In addition, the “b: directly sowed rice plant, effect on crop grade” value (“b: directly sowed rice plant” below) in the series on rice plant is 5 (Herbicidal ratio of 90% or more (almost completely withered)). For the same compound, the “e: wheat, effect on crop grade” value in the series with wheat is listed as 5 (Herbicidal ratio of 90% or more (almost completely withered)).
As to `CON=C(C)CC1CC(OC(=O)C(C)(C)Oc2cccc(Cl)c2)=C(c2c(C)cc(C)cc2C)C1=O` (stereo not drawn) [1-065], the “Herbicidal effect grade, A: Echinochloa oryzacola Vasing.” value in [1] was 5 (Herbicidal ratio of 90% or more (almost completely withered)). Moreover, the “Herbicidal effect grade, B” value with Scirpus juncoides [2] and in the series with Scirpus juncoides [3] was 5 (Herbicidal ratio of 90% or more (almost completely withered)) in each case. Moreover, in the series with Monochoria vaginalis, the “Herbicidal effect grade, C” value is 0 (Herbicidal ratio of 5% or lower (almost no effect)). The “herbicidal effect on H” value in series [4] is reported as 5 (Herbicidal ratio of 90% or more (almost completely withered)). In addition, in the series with Amaranthus retroflexus, the “N (Amaranthus retroflexus) herbicidal effect grade” value was 5 (Herbicidal ratio of 90% or more (almost completely withered)). Also, the “d (soybean) effect on crop grade” value in the series with soybean [5] is 0 (Herbicidal ratio of 5% or lower (almost no effect)). For the same compound, the “g (rapeseed) effect on crop grade” value with rapeseed is 4 (Herbicidal ratio of 70% or higher and lower than 90%). Besides, in the series on Avena fatua, the “I: Avena fatua, herbicidal effect grade” value was 5 (Herbicidal ratio of 90% or more (almost completely withered)). The “d: soybean, effect on crop grade” value in the series on soybean [6] was 4 (Herbicidal ratio of 70% or higher and lower than 90%). The “b: directly sowed rice plant” value with rice plant is listed as 5 (Herbicidal ratio of 90% or more (almost completely withered)). In addition, in the series on wheat, the “e: wheat, effect on crop grade” value was 5 (Herbicidal ratio of 90% or more (almost completely withered)).
For `CC(CC1CC(O)=C(c2c(C)cc(C)cc2C)C1=O)=NOCC=CCl` (stereo not drawn) [1-056], the “Herbicidal effect grade, A: Echinochloa oryzacola Vasing.” value in series [1] is on record as 5 (Herbicidal ratio of 90% or more (almost completely withered)). Also, the “Herbicidal effect grade, B” value in the series with Scirpus juncoides [2] and in the series on Scirpus juncoides [3] was 5 (Herbicidal ratio of 90% or more (almost completely withered)) in each case. In the series with Monochoria vaginalis, the “Herbicidal effect grade, C” value is 4 (Herbicidal ratio of 70% or higher and lower than 90%). In addition, the “herbicidal effect on H” value in series [4] is reported as 5 (Herbicidal ratio of 90% or more (almost completely withered)). In addition, the “N (Amaranthus retroflexus) herbicidal effect grade” value in the series with Amaranthus retroflexus was 3 (Herbicidal ratio of 40% or higher and lower than 70%). Further, the “d (soybean) effect on crop grade” value in the series with soybean [5] is recorded as 0 (Herbicidal ratio of 5% or lower (almost no effect)). For the same compound, the “g (rapeseed) effect on crop grade” value with rapeseed is 4 (Herbicidal ratio of 70% or higher and lower than 90%). The “I: Avena fatua, herbicidal effect grade” value in the series with Avena fatua is 5 (Herbicidal ratio of 90% or more (almost completely withered)). In addition, the “d: soybean, effect on crop grade” value in the series on soybean [6] was 4 (Herbicidal ratio of 70% or higher and lower than 90%). In the series on rice plant, the “b: directly sowed rice plant” value was 5 (Herbicidal ratio of 90% or more (almost completely withered)). Further, in the series with wheat, the “e: wheat, effect on crop grade” value was 5 (Herbicidal ratio of 90% or more (almost completely withered)).
As for `CC(CC1CC(O)=C(c2c(C)cc(C)cc2C)C1=O)=NOCC1CC1` (stereo not drawn) [1-024], in series [1], the “Herbicidal effect grade, A: Echinochloa oryzacola Vasing.” value is on record as 5 (Herbicidal ratio of 90% or more (almost completely withered)). For the same compound, the “Herbicidal effect grade, B” value in the series on Scirpus juncoides [2] and in the series with Scirpus juncoides [3] was 5 (Herbicidal ratio of 90% or more (almost completely withered)) in each case. The “Herbicidal effect grade, C” value in the series with Monochoria vaginalis is 3 (Herbicidal ratio of 40% or higher and lower than 70%). Further, the “herbicidal effect on H” value in series [4] was 5 (Herbicidal ratio of 90% or more (almost completely withered)). For the same compound, the “N (Amaranthus retroflexus) herbicidal effect grade” value in the series on Amaranthus retroflexus was 4 (Herbicidal ratio of 70% or higher and lower than 90%). In addition, the “d (soybean) effect on crop grade” value in the series on soybean [5] was 1 (Herbicidal ratio of 5% or higher and lower than 20%). Further, in the series on rapeseed, the “g (rapeseed) effect on crop grade” value was 3 (Herbicidal ratio of 40% or higher and lower than 70%). In addition, the “I: Avena fatua, herbicidal effect grade” value in the series on Avena fatua is listed as 5 (Herbicidal ratio of 90% or more (almost completely withered)). In addition, in the series on soybean [6], the “d: soybean, effect on crop grade” value was 2 (Herbicidal ratio of 20% or higher and lower than 40%). Also, the “b: directly sowed rice plant” value in the series with rice plant is given as 5 (Herbicidal ratio of 90% or more (almost completely withered)). Also, the “e: wheat, effect on crop grade” value in the series with wheat was 5 (Herbicidal ratio of 90% or more (almost completely withered)).
In the case of `CC(CC1CC(O)=C(c2c(C)cc(C)cc2C)C1=O)=NOCC[Si](C)(C)C` (stereo not drawn) [1-055], the “Herbicidal effect grade, A: Echinochloa oryzacola Vasing.” value in [1] was 5 (Herbicidal ratio of 90% or more (almost completely withered)). In addition, the “Herbicidal effect grade, B” value is 3 (Herbicidal ratio of 40% or higher and lower than 70%) in the series on Scirpus juncoides [2]; 0 (Herbicidal ratio of 5% or lower (almost no effect)) in the series with Scirpus juncoides [3]. In addition, the “Herbicidal effect grade, C” value with Monochoria vaginalis is 0 (Herbicidal ratio of 5% or lower (almost no effect)). Besides, the “herbicidal effect on H” value in series [4] was 5 (Herbicidal ratio of 90% or more (almost completely withered)). The “N (Amaranthus retroflexus) herbicidal effect grade” value in the series with Amaranthus retroflexus is given as 0 (Herbicidal ratio of 5% or lower (almost no effect)). The “d (soybean) effect on crop grade” value with soybean [5] is on record as 0 (Herbicidal ratio of 5% or lower (almost no effect)). Further, the “g (rapeseed) effect on crop grade” value in the series with rapeseed is given as 0 (Herbicidal ratio of 5% or lower (almost no effect)). In addition, the “I: Avena fatua, herbicidal effect grade” value with Avena fatua was 4 (Herbicidal ratio of 70% or higher and lower than 90%). In addition, the “d: soybean, effect on crop grade” value in the series with soybean [6] is 2 (Herbicidal ratio of 20% or higher and lower than 40%). For the same compound, the “b: directly sowed rice plant” value with rice plant is on record as 5 (Herbicidal ratio of 90% or more (almost completely withered)). In the series on wheat, the “e: wheat, effect on crop grade” value was 0 (Herbicidal ratio of 5% or lower (almost no effect)).
Consider `CON=C(C)CC1CC(OC(=O)COc2ccc(OC)cc2)=C(c2c(C)cc(C)cc2C)C1=O` (stereo not drawn) [1-069], for which, in [1], the “Herbicidal effect grade, A: Echinochloa oryzacola Vasing.” value is listed as 5 (Herbicidal ratio of 90% or more (almost completely withered)). Also, the “Herbicidal effect grade, B” value was 4 (Herbicidal ratio of 70% or higher and lower than 90%) with Scirpus juncoides [2]; 4 (Herbicidal ratio of 70% or higher and lower than 90%) in the series with Scirpus juncoides [3]. The “Herbicidal effect grade, C” value in the series with Monochoria vaginalis is 3 (Herbicidal ratio of 40% or higher and lower than 70%). Further, in series [4], the “herbicidal effect on H” value was 5 (Herbicidal ratio of 90% or more (almost completely withered)). In the series on Amaranthus retroflexus, the “N (Amaranthus retroflexus) herbicidal effect grade” value is 4 (Herbicidal ratio of 70% or higher and lower than 90%). In the series with soybean [5], the “d (soybean) effect on crop grade” value is 0 (Herbicidal ratio of 5% or lower (almost no effect)). Further, in the series with rapeseed, the “g (rapeseed) effect on crop grade” value was 4 (Herbicidal ratio of 70% or higher and lower than 90%). For the same compound, in the series on Avena fatua, the “I: Avena fatua, herbicidal effect grade” value is on record as 5 (Herbicidal ratio of 90% or more (almost completely withered)). For the same compound, the “d: soybean, effect on crop grade” value in the series with soybean [6] was 4 (Herbicidal ratio of 70% or higher and lower than 90%). In addition, the “b: directly sowed rice plant” value in the series on rice plant is reported as 5 (Herbicidal ratio of 90% or more (almost completely withered)). The “e: wheat, effect on crop grade” value in the series with wheat is 5 (Herbicidal ratio of 90% or more (almost completely withered)).

Source of the values: patent US11000033B2, “Ketone or oxime compound, and herbicide” (NISSAN CHEMICAL CORPORATION, priority 2014, dated 2021).
